This is an account of results in PubChem BioAssay (NCI).

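Step 1: Grow cells in 96-well plates. Step 2: Expose to compound for 48 hours at 5 concentrations. Step 3: Interpolate endpoints linearly; if unreached, use highest concentration. The concentration for full growth arrest is given as TGI.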

The first assay relates to HOP-62 NSCLC. The assay can be described thus: NCI tumour cell line growth inhibition, 48 h.
The compound `COc1ccc(C(OCC2OC(n3cc(C)c(=O)[nH]c3=O)CC2n2cc(Cn3cc(I)c(=O)[nH]c3=O)nn2)(c2ccccc2)c2ccccc2)cc1` (stereo not given) gave a TGI greater than 100 µM.
For the compound `CC(=O)NNc1nc(C)c(C(=O)NNC(=O)C(=O)Nc2ccc(Cl)cc2)s1`, the TGI was greater than 100 µM.
Still for that read-out and setting: in the case of `COc1ccc2c3c1C(=O)CCCC3CO2` (stereo not given) it was greater than 100 µM.

In a further assay the test system is NCI-H460 lung. The assay can be described thus: NCI tumour cell line growth inhibition, 48 h.
`O=C1/C(=C/c2ccc(O)cc2)CC/C1=C\c1ccc(O)cc1`: the TGI was greater than 100 µM.
On the same count and under the same terms, in the case of `CC(=O)NNc1nc(C)c(C(=O)NNC(=O)C(=O)Nc2ccc(Cl)cc2)s1` it was greater than 100 µM.
`COc1ccc2c3c1C(=O)CCCC3CO2` (stereo not given) displayed a TGI greater than 100 µM.

The next assay relates to SNB-19 CNS. The assay can be described thus: NCI tumour cell line growth inhibition, 48 h.
Consider `O=C1/C(=C/c2ccc(O)cc2)CC/C1=C\c1ccc(O)cc1`, for which the TGI is greater than 100 µM.
The same measure, in the same setting: with `COc1ccc(C(OCC2OC(n3cc(C)c(=O)[nH]c3=O)CC2n2cc(Cn3cc(I)c(=O)[nH]c3=O)nn2)(c2ccccc2)c2ccccc2)cc1` (stereo not given) the figure was greater than 100 µM; with `CC(=O)NNc1nc(C)c(C(=O)NNC(=O)C(=O)Nc2ccc(Cl)cc2)s1`, greater than 100 µM.
The same measure, in the same setting: in the case of `COc1ccc2c3c1C(=O)CCCC3CO2` (stereo not given) it was greater than 100 µM.

The subject of a further assay is ACHN renal. The experiment in a line: NCI tumour cell line growth inhibition, 48 h.
As for `O=C1/C(=C/c2ccc(O)cc2)CC/C1=C\c1ccc(O)cc1`, the TGI was greater than 100 µM.
Still for that read-out and setting: in the case of `COc1ccc(C(OCC2OC(n3cc(C)c(=O)[nH]c3=O)CC2n2cc(Cn3cc(I)c(=O)[nH]c3=O)nn2)(c2ccccc2)c2ccccc2)cc1` (stereo not given) it was greater than 100 µM.
In the case of `CC(=O)NNc1nc(C)c(C(=O)NNC(=O)C(=O)Nc2ccc(Cl)cc2)s1`, the TGI is greater than 100 µM.
Same read-out and setting: in the case of `COc1ccc2c3c1C(=O)CCCC3CO2` (stereo not given) it was greater than 100 µM.

The test system of a further assay is 786-0 renal. The experiment in a line: NCI tumour cell line growth inhibition, 48 h.
Compound `O=C1/C(=C/c2ccc(O)cc2)CC/C1=C\c1ccc(O)cc1` gave a TGI greater than 100 µM.
Same read-out and setting: with `COc1ccc(C(OCC2OC(n3cc(C)c(=O)[nH]c3=O)CC2n2cc(Cn3cc(I)c(=O)[nH]c3=O)nn2)(c2ccccc2)c2ccccc2)cc1` (stereo not given) the figure was greater than 100 µM; with `CC(=O)NNc1nc(C)c(C(=O)NNC(=O)C(=O)Nc2ccc(Cl)cc2)s1`, greater than 100 µM.
Consider `COc1ccc2c3c1C(=O)CCCC3CO2` (stereo not given), for which the TGI is greater than 100 µM.

The subject of a further assay is RXF 393 renal. The experiment in a line: NCI tumour cell line growth inhibition, 48 h.
`O=C1/C(=C/c2ccc(O)cc2)CC/C1=C\c1ccc(O)cc1` registered a TGI greater than 100 µM.
On the same count and under the same terms, with `COc1ccc(C(OCC2OC(n3cc(C)c(=O)[nH]c3=O)CC2n2cc(Cn3cc(I)c(=O)[nH]c3=O)nn2)(c2ccccc2)c2ccccc2)cc1` (stereo not given) the figure was greater than 100 µM.
`COc1ccc2c3c1C(=O)CCCC3CO2` (stereo not given): the TGI was greater than 100 µM.

Another assay relates to MDA-MB-435. The assay can be described thus: NCI tumour cell line growth inhibition, 48 h.
Take `O=C1/C(=C/c2ccc(O)cc2)CC/C1=C\c1ccc(O)cc1`: the TGI was greater than 100 µM.
Same read-out and setting: with `COc1ccc(C(OCC2OC(n3cc(C)c(=O)[nH]c3=O)CC2n2cc(Cn3cc(I)c(=O)[nH]c3=O)nn2)(c2ccccc2)c2ccccc2)cc1` (stereo not given) the figure was greater than 100 µM.

Another assay has as its system HCT-15 colon. The experiment in a line: NCI tumour cell line growth inhibition, 48 h.
As to `O=C1/C(=C/c2ccc(O)cc2)CC/C1=C\c1ccc(O)cc1`, the TGI was greater than 100 µM.
On the same count and under the same terms, in the case of `COc1ccc(C(OCC2OC(n3cc(C)c(=O)[nH]c3=O)CC2n2cc(Cn3cc(I)c(=O)[nH]c3=O)nn2)(c2ccccc2)c2ccccc2)cc1` (stereo not given) it was greater than 100 µM; in that of `CC(=O)NNc1nc(C)c(C(=O)NNC(=O)C(=O)Nc2ccc(Cl)cc2)s1`, greater than 100 µM.
Still for that read-out and setting: in the case of `COc1ccc2c3c1C(=O)CCCC3CO2` (stereo not given) it was greater than 100 µM.

Another assay concerns TK-10 renal. The assay can be described thus: NCI tumour cell line growth inhibition, 48 h.
For `O=C1/C(=C/c2ccc(O)cc2)CC/C1=C\c1ccc(O)cc1`, the TGI was greater than 100 µM.
Still for that read-out and setting: in the case of `COc1ccc(C(OCC2OC(n3cc(C)c(=O)[nH]c3=O)CC2n2cc(Cn3cc(I)c(=O)[nH]c3=O)nn2)(c2ccccc2)c2ccccc2)cc1` (stereo not given) it was greater than 100 µM.
On the same count and under the same terms, in the case of `CC(=O)NNc1nc(C)c(C(=O)NNC(=O)C(=O)Nc2ccc(Cl)cc2)s1` it was greater than 100 µM.
The same measure, in the same setting: with `COc1ccc2c3c1C(=O)CCCC3CO2` (stereo not given) the figure was greater than 100 µM.

A further assay has as its system SW-620 colon. The experiment in a line: NCI tumour cell line growth inhibition, 48 h.
The compound `O=C1/C(=C/c2ccc(O)cc2)CC/C1=C\c1ccc(O)cc1` returned a TGI greater than 100 µM.
On the same count and under the same terms, with `COc1ccc(C(OCC2OC(n3cc(C)c(=O)[nH]c3=O)CC2n2cc(Cn3cc(I)c(=O)[nH]c3=O)nn2)(c2ccccc2)c2ccccc2)cc1` (stereo not given) the figure was greater than 100 µM; with `CC(=O)NNc1nc(C)c(C(=O)NNC(=O)C(=O)Nc2ccc(Cl)cc2)s1`, greater than 100 µM.
Same read-out and setting: with `COc1ccc2c3c1C(=O)CCCC3CO2` (stereo not given) the figure was greater than 100 µM.

The subject of another assay is K-562 leukemia. The experiment in a line: NCI tumour cell line growth inhibition, 48 h.
Regarding `O=C1/C(=C/c2ccc(O)cc2)CC/C1=C\c1ccc(O)cc1`, the TGI is greater than 100 µM.
The same measure, in the same setting: with `CC(=O)NNc1nc(C)c(C(=O)NNC(=O)C(=O)Nc2ccc(Cl)cc2)s1` the figure was greater than 100 µM.
On the same count and under the same terms, with `COc1ccc2c3c1C(=O)CCCC3CO2` (stereo not given) the figure was greater than 100 µM.

The next assay has as its system SN12C renal. The experiment in a line: NCI tumour cell line growth inhibition, 48 h.
The compound `O=C1/C(=C/c2ccc(O)cc2)CC/C1=C\c1ccc(O)cc1` displayed a TGI greater than 100 µM.
The same measure, in the same setting: in the case of `COc1ccc(C(OCC2OC(n3cc(C)c(=O)[nH]c3=O)CC2n2cc(Cn3cc(I)c(=O)[nH]c3=O)nn2)(c2ccccc2)c2ccccc2)cc1` (stereo not given) it was greater than 100 µM; in that of `CC(=O)NNc1nc(C)c(C(=O)NNC(=O)C(=O)Nc2ccc(Cl)cc2)s1`, greater than 100 µM; in that of `COc1ccc2c3c1C(=O)CCCC3CO2` (stereo not given), greater than 100 µM.

The test system of the next assay is NCI-H23 lung. The assay can be described thus: NCI tumour cell line growth inhibition, 48 h.
`O=C1/C(=C/c2ccc(O)cc2)CC/C1=C\c1ccc(O)cc1` had a TGI greater than 100 µM.
`COc1ccc(C(OCC2OC(n3cc(C)c(=O)[nH]c3=O)CC2n2cc(Cn3cc(I)c(=O)[nH]c3=O)nn2)(c2ccccc2)c2ccccc2)cc1` (stereo not given) gave a TGI greater than 100 µM.
Same read-out and setting: with `CC(=O)NNc1nc(C)c(C(=O)NNC(=O)C(=O)Nc2ccc(Cl)cc2)s1` the figure was greater than 100 µM; with `COc1ccc2c3c1C(=O)CCCC3CO2` (stereo not given), greater than 100 µM.

Another assay deals with OVCAR-4 ovarian. The assay can be described thus: NCI tumour cell line growth inhibition, 48 h.
In the case of `O=C1/C(=C/c2ccc(O)cc2)CC/C1=C\c1ccc(O)cc1`, the TGI is greater than 100 µM.
Same read-out and setting: in the case of `COc1ccc(C(OCC2OC(n3cc(C)c(=O)[nH]c3=O)CC2n2cc(Cn3cc(I)c(=O)[nH]c3=O)nn2)(c2ccccc2)c2ccccc2)cc1` (stereo not given) it was greater than 100 µM; in that of `CC(=O)NNc1nc(C)c(C(=O)NNC(=O)C(=O)Nc2ccc(Cl)cc2)s1`, greater than 100 µM; in that of `COc1ccc2c3c1C(=O)CCCC3CO2` (stereo not given), greater than 100 µM.

The next assay relates to COLO 205 colon. The experiment in a line: NCI tumour cell line growth inhibition, 48 h.
`O=C1/C(=C/c2ccc(O)cc2)CC/C1=C\c1ccc(O)cc1` gave a TGI greater than 100 µM.
Same read-out and setting: in the case of `COc1ccc(C(OCC2OC(n3cc(C)c(=O)[nH]c3=O)CC2n2cc(Cn3cc(I)c(=O)[nH]c3=O)nn2)(c2ccccc2)c2ccccc2)cc1` (stereo not given) it was greater than 100 µM; in that of `CC(=O)NNc1nc(C)c(C(=O)NNC(=O)C(=O)Nc2ccc(Cl)cc2)s1`, greater than 100 µM.
Compound `COc1ccc2c3c1C(=O)CCCC3CO2` (stereo not given) showed a TGI greater than 100 µM.

The subject of a further assay is SK-MEL-2 melanoma. The experiment in a line: NCI tumour cell line growth inhibition, 48 h.
Take `O=C1/C(=C/c2ccc(O)cc2)CC/C1=C\c1ccc(O)cc1`: the TGI was greater than 100 µM.
